Data published in paper PMC5034337 (Scientific Reports, 2016).

Assays:
[1] = French farmers with detectable DOM-1 levels; cited from earlier work
[2] = in vivo
mammalian ribosomes = format: biochemical, rabbit
[3] = in vivo; cited from earlier work
[4] = tested on: HT-29 colon carcinoma cells
[5] = moderately exposed UK population; cited from earlier work
[6] = tested on: primary human colon epithelial cells (HCEC-1CT)

SMILES	share of the total urinary DON, average [1] [%]	detection in urine samples [2]	concentration(s) with proliferative stimulus (T24 bladder cancer cells) [nM]	cytotoxic effect (T24 bladder cancer cells)	lowest concentration at which the proliferative effect was present (T24 bladder cancer cells) [nM]	concentration from which a significant decrease of cell viability was detectable (T24 bladder cancer cells; human) [µM]	concentration at which translation was completely inhibited (mammalian ribosomes) [µM]	concentration(s) with proliferative stimulus (Caco-2 cells) [nM]	cytotoxic effect (Caco-2 cells)	concentration from which a significant decrease of cell viability was detectable (Caco-2 cells; human) [µM]	maximum urinary concentration [3] [µg/L]	concentration(s) with proliferative stimulus [4] [µM]	cytotoxic effect [4]	concentration from which a significant decrease of cell viability was detectable ([4]; human) [µM]	overall 24 h urinary excretion rate of total DON (sum of DON and its glucuronides), average [5] [%]	cytotoxic effect [6]	concentration from which a significant decrease of cell viability was detectable ([6]; human) [µM]
C=C1[C@@H]2O[C@@H]3C=C(C)C(=O)[C@@H](O)[C@]3(CO)[C@@]1(C)C[C@H]2O [DOM-1, deepoxy-DON]	< 5	no DOM-1 was detected in any sample															
CC1=C[C@H]2O[C@@H]3[C@H](O)C[C@](C)([C@@]2(CO)[C@H](O)C1=O)[C@]31CO1 [DON, deoxynivalenol]			0.1 to 10	concentration dependent cytotoxicity	0.1	1	20	10	concentration dependent cytotoxicity	10	275	0.1	concentration dependent cytotoxicity	10	72	concentration dependent cytotoxicity	1
